This is an account of results in patent US20050209278A1, “Piperidinyl- and piperazinyl-sulfonylmethyl hydroxamic acids and their use as protease inhibitors” (priority 2002, published 2005).

The structures appear in SMILES notation. Where two headings read alike, the source gives them in different places.

One data set concerns the target T1, MMP-1 (Homo sapiens, UniProt P03956).
T1 construct: made in house; host or cells: MMP-1-transfected HT-1080 cells (spent media)
T1 sequence (P03956 100-469): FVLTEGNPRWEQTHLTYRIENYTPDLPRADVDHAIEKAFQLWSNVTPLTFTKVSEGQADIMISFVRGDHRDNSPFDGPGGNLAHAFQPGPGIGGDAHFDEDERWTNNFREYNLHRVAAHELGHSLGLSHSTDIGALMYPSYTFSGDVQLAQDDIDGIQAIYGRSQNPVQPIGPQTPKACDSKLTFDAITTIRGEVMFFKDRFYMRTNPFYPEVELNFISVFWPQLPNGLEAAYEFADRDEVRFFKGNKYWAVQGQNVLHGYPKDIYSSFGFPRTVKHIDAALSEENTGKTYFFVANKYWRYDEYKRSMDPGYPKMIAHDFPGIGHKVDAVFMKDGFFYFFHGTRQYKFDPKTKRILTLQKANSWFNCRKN
The data set can be described thus: MMP-1 inhibition (in vitro Ki). In kind it is biochemical.

In a further data set the target is T2, MMP-13 (Homo sapiens, UniProt P45452).
T2 construct: made in house; host or cells: baculovirus / insect cells
As to the kind of experiment: MMP-13 inhibition (in vitro Ki). In kind it is biochemical.

The target in another data set is T3, MMP-2 (Homo sapiens, UniProt P08253).
T3 construct: made in house; host or cells: MMP-2-transfected p2AHT2 cells
T3 sequence (P08253 110-660): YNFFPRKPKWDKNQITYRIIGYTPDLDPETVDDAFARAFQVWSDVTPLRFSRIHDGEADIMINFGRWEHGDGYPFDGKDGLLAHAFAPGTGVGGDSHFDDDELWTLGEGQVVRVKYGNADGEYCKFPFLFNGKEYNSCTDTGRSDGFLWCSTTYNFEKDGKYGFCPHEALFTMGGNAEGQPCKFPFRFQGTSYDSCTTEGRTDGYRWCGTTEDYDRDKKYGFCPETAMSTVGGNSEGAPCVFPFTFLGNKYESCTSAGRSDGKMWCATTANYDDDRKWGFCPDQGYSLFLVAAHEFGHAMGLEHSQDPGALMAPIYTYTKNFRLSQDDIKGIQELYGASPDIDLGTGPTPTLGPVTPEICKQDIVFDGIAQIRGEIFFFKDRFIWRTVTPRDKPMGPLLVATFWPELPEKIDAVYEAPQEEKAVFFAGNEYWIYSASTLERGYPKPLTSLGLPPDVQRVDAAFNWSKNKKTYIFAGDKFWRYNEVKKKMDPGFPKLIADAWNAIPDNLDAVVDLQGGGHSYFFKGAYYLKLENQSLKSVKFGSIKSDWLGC
The data set can be described thus: MMP-2 inhibition (in vitro Ki). It is filed as biochemical.

A further data set addresses T4, MMP-14 (Homo sapiens, UniProt P50281).
T4 construct: The catalytic domain enzyme was expressed in E. coli inclusion bodies, solubilized in urea; made in house
The data set can be described thus: MMP-14 inhibition (in vitro Ki). In kind it is biochemical.

For another data set, the target named is T5, MMP-9 (Homo sapiens, UniProt P14780).
T5 construct: made in house; host or cells: MMP-9-transfected HT1080 cells (spent media)
T5 sequence (P14780 107-707 limits assumed): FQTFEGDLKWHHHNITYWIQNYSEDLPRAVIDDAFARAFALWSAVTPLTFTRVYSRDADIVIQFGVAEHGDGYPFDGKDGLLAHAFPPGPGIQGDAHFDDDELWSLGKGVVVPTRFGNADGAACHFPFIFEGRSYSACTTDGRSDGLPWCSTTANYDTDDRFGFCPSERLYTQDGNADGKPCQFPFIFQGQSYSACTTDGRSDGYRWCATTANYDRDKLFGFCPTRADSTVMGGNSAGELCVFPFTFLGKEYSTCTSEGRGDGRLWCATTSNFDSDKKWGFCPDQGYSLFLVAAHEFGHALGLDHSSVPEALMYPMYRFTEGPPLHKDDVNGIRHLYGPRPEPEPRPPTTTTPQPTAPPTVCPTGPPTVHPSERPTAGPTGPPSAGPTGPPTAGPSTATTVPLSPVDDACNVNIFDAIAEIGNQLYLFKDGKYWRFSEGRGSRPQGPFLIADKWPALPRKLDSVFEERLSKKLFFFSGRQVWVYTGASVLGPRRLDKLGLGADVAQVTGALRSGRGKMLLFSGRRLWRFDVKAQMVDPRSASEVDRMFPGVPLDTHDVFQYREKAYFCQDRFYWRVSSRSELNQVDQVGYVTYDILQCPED
As to the kind of experiment: MMP-9 inhibition (in vitro Ki). It is filed as biochemical.

In data set [1] the test system is solid tumor cancers (colorectal, pancreatic, ovarian, and prostate). The following applies: cited from earlier work.
[2] abbreviates: Table 9, read-out: MMP-1 Ki (IC-50).
The mark [3] stands for this setting: Table 9, read-out: MMP-13 Ki (IC-50).
Where [4] appears, read: Table 9, read-out: MMP-2 Ki (IC-50).
Where [5] appears, read: Table 9, read-out: MMP-14 Ki (IC-50).
Where [6] appears, read: Table 9, read-out: MMP-9 Ki (IC-50).

Regarding `O=C(NO)C1(S(=O)(=O)N2CCN(c3ccc(-c4ccsc4)c(F)c3)CC2)CCOCC1` [Example A205], the Ki (commonly the equilibrium dissociation constant of an inhibitor or competing ligand from its target) on MMP-1 (setting [2]) came out at 3590 nM; at MMP-13 (setting [3]) it was 0.93 nM; at MMP-2 (setting [4]), 0.33 nM; on MMP-14 (setting [5]), 297 nM; at MMP-9 (setting [6]), 1.16 nM.
The corresponding values for `O=C(NO)C1(S(=O)(=O)N2CCC(c3cnc(OCC(F)(F)C(F)F)cn3)CC2)CCOCC1` [Example A206] are 4460 nM, 0.9 nM, 0.71 nM, 5750 nM and 0.84 nM.
The corresponding values for `O=C(/C=C/C=C/C1CCN(S(=O)(=O)C2(C(=O)NO)CCOCC2)CC1)N1CCOCC1` [Example A208] are 7360 nM, 1.94 nM, 178 nM, over 10000 nM and 1590 nM.
Consider `O=C(CCCCC1CCN(S(=O)(=O)C2(C(=O)NO)CCOCC2)CC1)N1CCc2ccccc21` [Example B1, (4-({4-[5-(2,3-dihydro-1H-indol-1-yl)-5-oxopentyl]piperidin-1-yl}sulfonyl)-N-hydroxytetrahydro-2H-pyran-4-carboxamide)], for which the inhibition constant (Ki) at MMP-1 (Table 10, read-out: MMP-1 Ki) is 482 nM; at MMP-13 (Table 10, read-out: MMP-13 Ki), 0.229 nM; on MMP-2 (Table 10, read-out: MMP-2 Ki), 30.7 nM; on MMP-14 (Table 10, read-out: MMP-14 Ki), over 10000 nM; on MMP-9 (Table 10, read-out: MMP-9 Ki) it was 380 nM.
Take `CCC(CC)(C(=O)NO)S(=O)(=O)N1CCC(Oc2ccc(SC(F)(F)F)cc2)CC1` [Example B2, 2-ethyl-N-hydroxy-2-[(4-{4-[(trifluoromethyl)thio]phenoxy}piperidin-1-yl)sulfonyl]butanamide]: the inhibition constant (Ki) at MMP-1 (Table 10, read-out: MMP-1 Ki) is 2910 nM; on MMP-13 (Table 10, read-out: MMP-13 Ki), 1.07 nM; on MMP-2 (Table 10, read-out: MMP-2 Ki) it was 1.21 nM; at MMP-14 (Table 10, read-out: MMP-14 Ki), 1540 nM; on MMP-9 (Table 10, read-out: MMP-9 Ki), 0.483 nM.
As for `COCCC(C(=O)NO)S(=O)(=O)N1CCC(Oc2ccc(SC(F)(F)F)cc2)CC1` (stereo not shown) [Example B3, N-hydroxy-4-methoxy-2-[(4-{4-[(trifluoromethyl)thio]phenoxy}piperidin-1-yl)sulfonyl]butanamide], the Ki at MMP-1 (Table 10, read-out: MMP-1 Ki) was over 10000 nM; at MMP-13 (Table 10, read-out: MMP-13 Ki), 0.985 nM; on MMP-2 (Table 10, read-out: MMP-2 Ki), 0.791 nM; on MMP-14 (Table 10, read-out: MMP-14 Ki) it was 1950 nM; at MMP-9 (Table 10, read-out: MMP-9 Ki), 0.332 nM.
In the case of `COCCC(CCOC)(C(=O)NO)S(=O)(=O)N1CCC(Oc2ccc(SC(F)(F)F)cc2)CC1` [Example B4, N-hydroxy-4-methoxy-2-(2-methoxyethyl)-2-[(4-{4-[(trifluoromethyl)thio]phenoxy}piperidin-1-yl)sulfonyl]butanamide], the Ki on MMP-1 (Table 10, read-out: MMP-1 Ki) was 2060 nM; at MMP-13 (Table 10, read-out: MMP-13 Ki), 0.45 nM; at MMP-2 (Table 10, read-out: MMP-2 Ki), 0.654 nM; at MMP-14 (Table 10, read-out: MMP-14 Ki), 1640 nM; on MMP-9 (Table 10, read-out: MMP-9 Ki), 0.181 nM.
With `CNC(=O)[C@@H](NC(=O)[C@H](CC(C)C)[C@H](O)C(=O)NO)C(C)(C)C` [Marimastat], the “most common drug-related toxicity” value in data set [1] (clinical trials in patients) was “musculoskeletal pain and stiffness”. Besides, the “effect on cancer-specific antigens used as surrogate markers for biological activity” value in data set [1] (patients with advanced, rapidly progressive, treatment-refractory solid tumor cancers) is recorded as “dose-related reduction in the rise of cancer-specific antigens”.
